Here are results for seven compounds from ChEMBL document CHEMBL1201862, “PubChem BioAssay data set” (2004).

The structures appear in SMILES notation. The source made the active and inactive calls.

Common to all, as to type: functional
In experiment [1] the test system is INS1. Nature of the experiment: INS-1E survival protection against cytokine death – cell-based, luminescence, retest, dose response (AID 449756).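 Also: cell death triggered by IL-1 beta plus TNF-alpha plus IFN-gamma mixture; protective hits raise ATP signal compared with cytokine alone wells.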 The conditions noted are these: Rattus norvegicus.
In experiment [2] the target is T1, Sentrin-specific protease 8 (Homo sapiens, UniProt Q96LD8).
T1 sequence (Q96LD8 whole entry): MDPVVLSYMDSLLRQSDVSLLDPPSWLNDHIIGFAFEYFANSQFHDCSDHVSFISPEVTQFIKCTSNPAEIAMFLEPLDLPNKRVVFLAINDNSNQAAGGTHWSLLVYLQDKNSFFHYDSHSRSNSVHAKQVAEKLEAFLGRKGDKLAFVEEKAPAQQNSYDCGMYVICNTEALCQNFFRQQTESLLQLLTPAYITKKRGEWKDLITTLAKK
Kind of experiment: inhibition of human SENP8 cleavage activity – biochemical, luminescence, SAR follow-up (AID 504501).

The target in experiment [3] is Activated CDC42 kinase 1 (Homo sapiens, UniProt Q07912). Nature of the experiment: Navigating the Kinome. Panel member name: ACK1.
Experiment [4] deals with Tyrosine-protein kinase ABL1 (Homo sapiens, UniProt P00519).
Experiment [5] addresses Glycogen synthase kinase-3 beta (Homo sapiens, UniProt P49841).
Experiment [6] has as its target Dual specificity mitogen-activated protein kinase kinase 1 (Homo sapiens, UniProt Q02750). Kind of experiment: Navigating the Kinome. Panel member name: MAP2K1.
Experiment [7] addresses Vascular endothelial growth factor receptor 2 (Homo sapiens, UniProt P35968).
The target in experiment [8] is Cyclin-dependent kinase 19 (Homo sapiens, UniProt Q9BWU1). Kind of experiment: Navigating the Kinome. Panel member name: CDC2L6.
Experiment [9] concerns the target Serine/threonine-protein kinase pim-1 (Homo sapiens, UniProt P11309).
Experiment [10] deals with T2, Serine/threonine-protein kinase TBK1 (Homo sapiens, UniProt Q9UHD2).
T2 sequence (Q9UHD2 whole entry): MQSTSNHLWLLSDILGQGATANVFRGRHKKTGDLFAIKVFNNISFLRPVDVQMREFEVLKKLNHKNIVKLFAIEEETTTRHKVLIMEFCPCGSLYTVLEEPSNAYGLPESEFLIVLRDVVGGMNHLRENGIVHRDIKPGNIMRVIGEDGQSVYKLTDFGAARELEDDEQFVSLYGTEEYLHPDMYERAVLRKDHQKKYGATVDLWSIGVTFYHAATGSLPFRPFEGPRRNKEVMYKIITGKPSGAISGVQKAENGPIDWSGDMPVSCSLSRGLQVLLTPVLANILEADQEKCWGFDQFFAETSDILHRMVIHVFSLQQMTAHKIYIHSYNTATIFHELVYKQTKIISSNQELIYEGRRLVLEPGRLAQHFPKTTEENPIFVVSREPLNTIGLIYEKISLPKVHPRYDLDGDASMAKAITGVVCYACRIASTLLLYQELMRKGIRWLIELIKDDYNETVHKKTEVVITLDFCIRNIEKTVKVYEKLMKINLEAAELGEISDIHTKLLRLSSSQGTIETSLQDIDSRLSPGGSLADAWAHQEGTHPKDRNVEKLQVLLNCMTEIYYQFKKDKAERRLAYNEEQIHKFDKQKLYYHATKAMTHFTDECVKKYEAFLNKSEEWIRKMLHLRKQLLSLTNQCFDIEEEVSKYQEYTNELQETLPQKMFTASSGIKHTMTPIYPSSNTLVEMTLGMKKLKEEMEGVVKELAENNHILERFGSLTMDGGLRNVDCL
Kind of experiment: Navigating the Kinome. Panel member name: TBK1.

The target in experiment [11] is Tyrosine-protein kinase Lck (Homo sapiens, UniProt P06239).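 Also: lck was assayed as one member of a kinase panel.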
In experiment [12] the target is cAMP-dependent protein kinase catalytic subunit alpha (Homo sapiens, UniProt P17612).
The target in experiment [13] is Tyrosine-protein kinase JAK2 (Homo sapiens, UniProt O60674).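 Also: JAK2 tested as one member of a kinase panel.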
Experiment [14] has as its target T3, Receptor-type tyrosine-protein kinase FLT3 (Homo sapiens, UniProt P36888).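 Also: FLT3 was tested as one member of a kinome-wide kinase panel.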
T3 sequence (P36888 whole entry): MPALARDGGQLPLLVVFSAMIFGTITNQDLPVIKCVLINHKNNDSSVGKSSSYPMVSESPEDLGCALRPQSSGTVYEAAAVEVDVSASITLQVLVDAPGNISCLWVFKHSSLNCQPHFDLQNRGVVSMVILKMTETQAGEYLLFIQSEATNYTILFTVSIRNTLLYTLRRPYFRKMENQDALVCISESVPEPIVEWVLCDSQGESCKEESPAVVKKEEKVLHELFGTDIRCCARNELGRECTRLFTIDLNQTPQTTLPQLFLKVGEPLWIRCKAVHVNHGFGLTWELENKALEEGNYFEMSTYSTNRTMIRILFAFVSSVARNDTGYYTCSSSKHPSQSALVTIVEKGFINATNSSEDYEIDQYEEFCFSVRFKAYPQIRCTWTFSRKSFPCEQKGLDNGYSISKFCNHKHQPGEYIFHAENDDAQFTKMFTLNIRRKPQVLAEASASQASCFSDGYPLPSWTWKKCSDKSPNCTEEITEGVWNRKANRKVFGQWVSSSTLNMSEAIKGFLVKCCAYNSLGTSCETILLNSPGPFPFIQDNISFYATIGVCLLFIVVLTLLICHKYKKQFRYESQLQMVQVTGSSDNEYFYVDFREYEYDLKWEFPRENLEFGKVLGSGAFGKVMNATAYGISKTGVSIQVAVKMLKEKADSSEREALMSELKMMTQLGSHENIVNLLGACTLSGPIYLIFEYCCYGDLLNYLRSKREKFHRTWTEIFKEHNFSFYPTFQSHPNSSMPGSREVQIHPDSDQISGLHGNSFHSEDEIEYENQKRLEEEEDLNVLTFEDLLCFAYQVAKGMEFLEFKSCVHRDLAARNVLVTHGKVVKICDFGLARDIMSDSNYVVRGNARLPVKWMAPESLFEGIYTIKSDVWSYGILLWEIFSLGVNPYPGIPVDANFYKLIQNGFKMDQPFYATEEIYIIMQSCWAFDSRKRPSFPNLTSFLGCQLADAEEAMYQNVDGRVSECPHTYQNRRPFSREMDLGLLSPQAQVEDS

The target in experiment [15] is Dual specificity mitogen-activated protein kinase kinase 2 (Homo sapiens, UniProt P36507). Nature of the experiment: Navigating the Kinome. Panel member name: MAP2K2.
Experiment [16] addresses 5'-AMP-activated protein kinase catalytic subunit alpha-1 (Homo sapiens, UniProt Q13131).

Glycogen synthase kinase-3 beta, sequence (P49841 whole entry): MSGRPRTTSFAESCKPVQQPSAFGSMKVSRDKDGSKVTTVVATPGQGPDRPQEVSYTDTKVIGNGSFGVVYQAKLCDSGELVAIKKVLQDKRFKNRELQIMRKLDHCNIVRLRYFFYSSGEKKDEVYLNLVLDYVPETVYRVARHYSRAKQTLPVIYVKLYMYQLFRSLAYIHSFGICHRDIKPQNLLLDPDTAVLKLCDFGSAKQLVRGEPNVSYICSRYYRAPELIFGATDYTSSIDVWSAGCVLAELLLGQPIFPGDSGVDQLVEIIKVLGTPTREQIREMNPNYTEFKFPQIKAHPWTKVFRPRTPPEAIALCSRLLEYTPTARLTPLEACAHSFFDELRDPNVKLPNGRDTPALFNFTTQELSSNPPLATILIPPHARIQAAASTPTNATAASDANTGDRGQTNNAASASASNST
5'-AMP-activated protein kinase catalytic subunit alpha-1, sequence (Q13131 whole entry): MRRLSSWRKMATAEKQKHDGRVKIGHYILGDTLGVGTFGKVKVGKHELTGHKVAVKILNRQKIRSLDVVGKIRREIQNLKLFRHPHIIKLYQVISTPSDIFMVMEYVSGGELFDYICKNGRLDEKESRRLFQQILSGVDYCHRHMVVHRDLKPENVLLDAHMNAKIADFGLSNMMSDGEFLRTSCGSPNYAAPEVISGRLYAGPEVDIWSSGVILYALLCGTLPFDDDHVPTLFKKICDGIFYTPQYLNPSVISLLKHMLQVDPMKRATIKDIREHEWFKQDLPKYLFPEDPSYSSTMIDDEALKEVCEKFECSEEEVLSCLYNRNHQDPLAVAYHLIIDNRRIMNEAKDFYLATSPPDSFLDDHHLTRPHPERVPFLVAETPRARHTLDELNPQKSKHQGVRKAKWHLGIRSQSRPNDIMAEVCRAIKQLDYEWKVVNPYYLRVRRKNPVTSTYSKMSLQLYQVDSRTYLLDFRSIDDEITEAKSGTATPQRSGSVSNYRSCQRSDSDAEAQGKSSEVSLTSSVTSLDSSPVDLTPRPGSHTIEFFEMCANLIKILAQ
Dual specificity mitogen-activated protein kinase kinase 2, sequence (P36507 whole entry): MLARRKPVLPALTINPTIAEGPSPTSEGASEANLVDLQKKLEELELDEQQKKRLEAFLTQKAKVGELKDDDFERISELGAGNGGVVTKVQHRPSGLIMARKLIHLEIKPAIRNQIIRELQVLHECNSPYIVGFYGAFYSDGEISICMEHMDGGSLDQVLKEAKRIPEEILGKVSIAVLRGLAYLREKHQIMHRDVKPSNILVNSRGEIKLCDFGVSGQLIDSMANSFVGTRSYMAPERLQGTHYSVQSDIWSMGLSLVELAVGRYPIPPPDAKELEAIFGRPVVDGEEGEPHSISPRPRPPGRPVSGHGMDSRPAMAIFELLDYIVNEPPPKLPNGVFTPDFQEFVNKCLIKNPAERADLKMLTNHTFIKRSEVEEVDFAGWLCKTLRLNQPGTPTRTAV
Serine/threonine-protein kinase pim-1, sequence (P11309 whole entry): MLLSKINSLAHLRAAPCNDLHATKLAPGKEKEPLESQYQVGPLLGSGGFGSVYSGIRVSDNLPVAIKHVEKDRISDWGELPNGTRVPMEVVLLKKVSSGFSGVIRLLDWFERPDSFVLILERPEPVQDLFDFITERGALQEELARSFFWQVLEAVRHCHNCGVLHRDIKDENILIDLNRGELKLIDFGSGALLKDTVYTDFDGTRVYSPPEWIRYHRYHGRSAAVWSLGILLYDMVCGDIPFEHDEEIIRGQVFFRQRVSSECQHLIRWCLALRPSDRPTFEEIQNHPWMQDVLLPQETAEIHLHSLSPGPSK
Vascular endothelial growth factor receptor 2, sequence (P35968 whole entry): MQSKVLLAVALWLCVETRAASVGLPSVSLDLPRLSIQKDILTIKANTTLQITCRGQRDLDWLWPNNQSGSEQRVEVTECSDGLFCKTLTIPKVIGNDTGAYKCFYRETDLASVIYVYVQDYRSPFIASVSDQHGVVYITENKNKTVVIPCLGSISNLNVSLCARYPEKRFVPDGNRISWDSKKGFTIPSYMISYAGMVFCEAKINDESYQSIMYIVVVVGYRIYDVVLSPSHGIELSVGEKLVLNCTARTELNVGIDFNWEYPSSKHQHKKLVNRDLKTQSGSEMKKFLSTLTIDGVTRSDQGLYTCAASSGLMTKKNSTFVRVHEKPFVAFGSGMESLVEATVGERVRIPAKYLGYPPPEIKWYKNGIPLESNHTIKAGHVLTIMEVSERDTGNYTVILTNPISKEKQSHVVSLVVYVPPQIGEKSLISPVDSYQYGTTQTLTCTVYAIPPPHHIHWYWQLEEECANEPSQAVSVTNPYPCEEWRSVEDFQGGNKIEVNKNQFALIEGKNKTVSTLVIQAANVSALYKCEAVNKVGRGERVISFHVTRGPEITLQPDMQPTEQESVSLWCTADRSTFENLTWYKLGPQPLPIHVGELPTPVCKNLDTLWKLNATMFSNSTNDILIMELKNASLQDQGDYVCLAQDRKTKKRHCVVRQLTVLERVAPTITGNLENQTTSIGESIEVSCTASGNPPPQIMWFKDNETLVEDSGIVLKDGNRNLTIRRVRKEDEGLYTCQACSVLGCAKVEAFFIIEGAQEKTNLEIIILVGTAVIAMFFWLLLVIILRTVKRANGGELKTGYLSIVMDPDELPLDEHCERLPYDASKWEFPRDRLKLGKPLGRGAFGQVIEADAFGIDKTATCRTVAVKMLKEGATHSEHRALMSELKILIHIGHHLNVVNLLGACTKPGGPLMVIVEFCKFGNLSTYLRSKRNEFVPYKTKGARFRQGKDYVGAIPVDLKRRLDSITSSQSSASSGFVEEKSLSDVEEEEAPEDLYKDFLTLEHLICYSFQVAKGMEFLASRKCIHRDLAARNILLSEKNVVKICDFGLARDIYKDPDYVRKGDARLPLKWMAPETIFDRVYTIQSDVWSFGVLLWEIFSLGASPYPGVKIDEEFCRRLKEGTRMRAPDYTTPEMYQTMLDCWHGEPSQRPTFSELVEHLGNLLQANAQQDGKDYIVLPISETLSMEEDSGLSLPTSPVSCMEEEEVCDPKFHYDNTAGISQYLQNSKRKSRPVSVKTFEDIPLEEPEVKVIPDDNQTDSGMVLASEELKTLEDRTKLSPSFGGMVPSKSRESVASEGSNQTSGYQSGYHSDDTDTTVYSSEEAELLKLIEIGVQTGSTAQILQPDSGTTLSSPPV
Tyrosine-protein kinase ABL1, sequence (P00519 whole entry): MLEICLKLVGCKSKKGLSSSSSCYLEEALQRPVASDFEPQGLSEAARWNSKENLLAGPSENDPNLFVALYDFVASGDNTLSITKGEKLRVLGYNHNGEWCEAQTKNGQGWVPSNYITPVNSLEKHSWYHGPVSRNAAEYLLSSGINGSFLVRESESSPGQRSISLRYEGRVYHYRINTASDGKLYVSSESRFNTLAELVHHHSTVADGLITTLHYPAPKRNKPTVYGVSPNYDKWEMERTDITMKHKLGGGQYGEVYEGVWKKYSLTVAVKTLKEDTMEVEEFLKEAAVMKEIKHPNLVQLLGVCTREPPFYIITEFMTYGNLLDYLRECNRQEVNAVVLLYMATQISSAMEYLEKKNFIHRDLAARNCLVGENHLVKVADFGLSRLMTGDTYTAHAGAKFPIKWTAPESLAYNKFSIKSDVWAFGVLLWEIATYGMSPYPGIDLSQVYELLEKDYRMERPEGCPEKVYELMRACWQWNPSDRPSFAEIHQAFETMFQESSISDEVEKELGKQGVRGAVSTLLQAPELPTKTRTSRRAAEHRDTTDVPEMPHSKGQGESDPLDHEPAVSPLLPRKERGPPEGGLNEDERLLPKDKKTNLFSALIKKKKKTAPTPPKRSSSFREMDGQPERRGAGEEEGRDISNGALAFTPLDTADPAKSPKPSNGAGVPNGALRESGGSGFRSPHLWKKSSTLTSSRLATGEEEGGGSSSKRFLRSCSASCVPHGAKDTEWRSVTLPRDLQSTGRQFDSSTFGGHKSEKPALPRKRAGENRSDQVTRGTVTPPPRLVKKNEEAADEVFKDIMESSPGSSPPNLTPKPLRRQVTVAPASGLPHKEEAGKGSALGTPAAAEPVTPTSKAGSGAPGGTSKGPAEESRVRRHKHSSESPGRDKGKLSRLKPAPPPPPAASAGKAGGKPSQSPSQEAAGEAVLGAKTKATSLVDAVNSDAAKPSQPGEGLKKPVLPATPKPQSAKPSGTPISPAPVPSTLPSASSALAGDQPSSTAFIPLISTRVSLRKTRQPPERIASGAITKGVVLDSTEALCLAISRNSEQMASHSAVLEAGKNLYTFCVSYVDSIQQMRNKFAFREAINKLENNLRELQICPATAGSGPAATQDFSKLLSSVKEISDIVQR
Dual specificity mitogen-activated protein kinase kinase 1, sequence (Q02750 whole entry): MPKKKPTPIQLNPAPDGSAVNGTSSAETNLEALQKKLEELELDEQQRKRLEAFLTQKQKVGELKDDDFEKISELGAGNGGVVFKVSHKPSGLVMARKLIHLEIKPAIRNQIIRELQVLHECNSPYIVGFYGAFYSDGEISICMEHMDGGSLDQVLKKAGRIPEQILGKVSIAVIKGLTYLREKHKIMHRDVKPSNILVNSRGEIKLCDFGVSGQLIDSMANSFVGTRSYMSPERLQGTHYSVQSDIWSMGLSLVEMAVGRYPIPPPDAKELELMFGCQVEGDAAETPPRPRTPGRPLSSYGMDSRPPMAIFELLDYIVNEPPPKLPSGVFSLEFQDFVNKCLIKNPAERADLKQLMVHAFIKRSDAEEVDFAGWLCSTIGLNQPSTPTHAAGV

The AC50 is the concentration giving half of the maximal activity seen. Regarding `CCN(CC)CCOc1ccc2c(c1)C(=NNC(=O)c1ccccn1)c1cc(OCCN(CC)CC)ccc1-2`, the AC50 in experiment [1] is 2.97 µM (active).

As to `O=C(NC1=C(Nc2ccc(F)cc2)C(=O)c2ccccc2C1=O)c1ccc(Cl)cc1`, the half-maximal activity concentration (AC50) in experiment [1] was 5.26 µM (active).

As usually defined, the IC50 is the concentration that gives 50% inhibition. For `COc1cc2cc(NC(C)=O)cc(NCc3ccccc3)c2cc1OC`, in experiment [2], the IC50 is > 99 µM (inactive).

Turning to `CN(C)c1cc(N/N=C\c2ccccc2)nc(N(C)C)n1`, the concentration for half-maximal inhibition (IC50) in experiment [2] was 31.7 µM (active).

In general, Ki refers to a dissociation constant, usually derived from enzyme kinetics or from competition with a known ligand. For `O=C1Nc2cc(-c3ccc(O)cc3)ccc2C1=Cc1ccc[nH]1`, the Ki in experiment [3] was > 3.98 µM (inactive); in experiment [4], 0.0501 µM (active); in experiment [5] it was 0.501 µM (active); in experiment [6] it was 1.26 µM (active); in experiment [7], 0.0126 µM (active); in experiment [8], > 100 µM (inactive). Besides, the inhibition constant Ki in experiment [9] is 0.251 µM (active); in experiment [10] it was 1.26 µM (active); in experiment [11], 1 µM (active); in experiment [12], > 1.26 µM (inactive); in experiment [13], 0.00501 µM (active); in [14], > 3.16 µM (inactive). Also, the Ki in experiment [15] is > 3.98 µM (inactive); in experiment [16], 0.158 µM (active).

Regarding `NC(COc1cncc(-c2ccc3c(c2)C(=Cc2ccc[nH]2)C(=O)N3)c1)Cc1ccccc1` (configuration not stated), the inhibitory constant (Ki) in experiment [3] was 1.58 µM (active); in experiment [4], 0.0631 µM (active); in [5], 0.00251 µM (active); in experiment [6], 0.316 µM (active); in [7], 0.000631 µM (active); in [9], 0.631 µM (active). In addition, the inhibition constant (Ki) in experiment [10] is 0.00794 µM (active); in [11], 0.251 µM (active); in experiment [12], 0.00126 µM (active); in experiment [13] it was 0.0631 µM (active); in experiment [14], 0.0251 µM (active); in experiment [15], 0.316 µM (active). In addition, the inhibition constant Ki in experiment [16] is 0.00316 µM (active).

On to `O=C1Cc2cc(-c3ccccc3)cnc2N1`, for which the Ki in experiment [4] was 79.4 µM (active); in experiment [5] it was 15.8 µM (active); in [6], 79.4 µM (active); in experiment [7], 31.6 µM (active); in [8] it was > 100 µM (inactive); in experiment [9] it was 50.1 µM (active). Further, the inhibition constant Ki in experiment [10] is 79.4 µM (active); in experiment [12], > 50.1 µM (inactive); in experiment [14] it was 79.4 µM (active); in experiment [15] it was 50.1 µM (active); in experiment [16] it was 50.1 µM (active).
